{"source": "patent US5665754A", "about": "“Substituted pyrrolidines” (Glaxo Wellcome Inc., priority 1993, dated 1997)", "tested_on": "TNFα secretion from murine elicited peritoneal macrophages", "experiment": "Assay for inhibition of LPS-induced TNFα production", "format": "cell-based, mouse", "conditions": "preliminary experiments", "excerpt": "In order to assess the ability of a compound to reduce TNFα secretion in elicited mouse peritoneal macrophages, the following protocol was employed. […] (See Scales, W. E., S. W. Chensuc, I. Otterness and S. L. Kunkel, 1989, Regulation of monokine gene expression: Prostaglandin E2 suppresses tumor necrosis factor but not interleukin-1a or b-mRNA and cell-associated bioactivity, J. Leukocytc Biology 45:416-421.). (See also Renz, H., J-H. Gong, A. Schmidt, M. Nain and Diethard Gemsa, 1988, Release of tumor necrosis factor-a from macrophages. Enhancement and suppression are dose-dependently regulated by prostaglandin E2 and cyclic nucleotides, J. Immunol. 1 41:2388-2393). […] (See Noel, L. S., M. Verghese, K. M. Connelly, L. J. Sekut and S. A. Stimpson, 1992, Type IV-specific phosphodiesterase (PDE) inhibitors suppress murine TNFα expression in vitro and in vivo-(abstract)--6th International Conference, Inflammation Research Association). TNFα secretion from murine elicited peritoneal macrophages was used as a readout for a compound's ability to raise cAMP, and/or inhibit phosphodiesterase within a cell.\nMice (female C3H mice, 15-20 gm body weight) were injected intraperitoneally with 2 mL of 5 mM sodium periodate solution. […] TNFα protein in the supernatant fluids was measured using a commercially available enzyme-linked immunosorbant assay (ELISA) (Genzyme).", "data": [{"compound": "COc1ccc(C2CNC(=O)C2)cc1OC1CCCC1", "note": "(stereo not shown) [rolipram]", "values": [{"measurement": "LPS induced TNFα secretion from murine macrophages", "result": "inhibited"}]}]}
